Experimental data taken from patent US12054498B2, “Heteroaromatic macrocyclic ether chemotherapeutic agents” (Nuvalent, Inc., priority 2020, dated 2024).

Key:
[1] = molecular target: T1, Ba/F3 cells EML4-ALK L1196M/G1202R (variant 1) (Homo sapiens, UniProt Q9UM73, G1202R/L1196M); assay: Ba/F3 cell proliferation assay, EML4-ALK L1196M/G1202R (variant 1); format: cell-based; conditions: 72 hours, CellTiter-Glo
T1 construct: echinoderm microtubule-associated protein-like 4 (EML4) gene and the ALK tyrosine kinase domain; host or cells: Ba/F3 (RIKEN), retroviral pMSCV-puro; the other entry of the earlier key: EML4 (Q9HC35, Echinoderm microtubule-associated protein-like 4)
Summary of the method: (§1)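 Luminescence from CellTiter-Glo after 72 hours of compound exposure measured viability of IL-3-independent Ba/F3 cells carrying the retrovirally introduced fusion. Cells were plated at 1,000 per well one day before 3-fold serial dilutions were added. IC50 values came from four-parameter logistic regression.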

[2] = molecular target: T2, ALK L1196M/G1202R (Homo sapiens, UniProt Q9UM73, G1202R/L1196M); assay: Biochemical kinase assay, ALK L1196M/G1202R kinase domain; conditions: apparent inhibitory constant, Morrison equation; ATP 2 mM in substrate solution; read-out: ALK-L1196M-G1202R Ki^app
T2 construct: purchased SignalChem A19-12NG
Summary of the method: (§2)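 Kinase domains (in kinase solution: ROS1-G2032R 0.5 nM, ROS1-wt 0.6 nM, TRKA 1 nM, ALK L1196M/G1202R 3 nM) were mixed with compound and a substrate solution of 2 mM ATP plus 26 μM fluorogenic AQT0101 (ALK, ROS1) or AQT0104 (TRKA) in HEPES pH 7.5/MgCl2. Fluorescence was followed for 120 min at 30° C; Ki^app was obtained by Morrison fit of initial rates.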

[3] = molecular target: T3, ROS1-wt (Homo sapiens, UniProt P08922); assay: Biochemical kinase assay, ROS1-wt kinase domain; conditions: apparent inhibitory constant, Morrison equation; ATP 2 mM in substrate solution; read-out: ROS1-wt Ki^app
T3 construct: purchased Carna 08-163
Summary of the method: (§3)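 Compounds, as 100-fold DMSO stocks, were dispensed first, then substrate mix was added (ATP 2 mM, AQT0101 26 μM, in 50 mM HEPES pH 7.5/10 mM MgCl2). Reactions ran at 30 °C with fluorescence logged every 2 min over 120 min. Apparent inhibition constants came from fitting rates to Morrison's tight-binding equation.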

[4] = molecular target: T4, Ba/F3 cells CD74-ROS1 wild-type (wt) (Homo sapiens, UniProt P08922); assay: Ba/F3 cell proliferation assay, CD74-ROS1 wild-type; format: cell-based; conditions: 72 hours, CellTiter-Glo
T4 construct: fusion of the C-terminus of ROS1 with the N-terminus of various partner proteins; host or cells: Ba/F3 (RIKEN), retroviral pMSCV-puro; the other entry of the earlier key: CD74 (P04233, HLA class II histocompatibility antigen gamma chain)
Summary of the method: (§4)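 IL-3-independent Ba/F3 CD74-ROS1 lines, puromycin-selected monoclones; 1,000 cells/well, plated 1 d before dosing; 3-fold serial dilutions, 72 h; CellTiter-Glo luminescence; IC50 by 4-parameter logistic regression.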

[5] = system: TPM3-NTRK1-wt IC50 / primary target IC50 (e.g. CD74-ROS1-wt); assay: TRKA selectivity in Ba/F3 cells (TRKA potency divided by primary target potency); format: cell-based; conditions: for TPM3-NTRK1-wt/CD74-ROS1-G2032R selectivity ratio: TRKA potency / CD74-ROS1-G2032R potency; for TPM3-NTRK1-wt/CD74-ROS1-wt selectivity ratio: TRKA potency / CD74-ROS1-wt potency; for TPM3-NTRK1-wt/EML4-ALK-L1196M-G1202R selectivity ratio: TRKA potency / EML4-ALK-L1196M-G1202R potency; for TPM3-NTRK1-wt/EML4-ALK-wt selectivity ratio: TRKA potency / EML4-ALK-wt potency
Procedure: TRKA selectivity was calculated by dividing a compound's TRKA potency by its primary target potency (e.g. TPM3-NTRK1-wt IC50/CD74-ROS1-wt IC50). Compound selectivity can be interpreted by binning ratio values: bin A for very high selectivity, ratio >30-fold; bin B for high selectivity, ratio >10-fold; bin C for moderate selectivity, ratio ≥1; and bin D for low selectivity, ratio <1. […] (nd=not determined).

[6] = molecular target: T5, TRKA-wt (Homo sapiens, UniProt P04629); assay: Biochemical kinase assay, TRKA-wt kinase domain; conditions: apparent inhibitory constant, Morrison equation; ATP 2 mM in substrate solution; read-out: TRKA-wt Ki^app
T5 construct: or TRKA-wt (1 nM, BPS Bio, 40280) kinase domains in buffer; purchased BPS Bio 40280
Summary of the method: as §2

[7] = molecular target: T6, Ba/F3 cells EML4-ALK wt (variant 1) (Homo sapiens, UniProt Q9UM73); assay: Ba/F3 cell proliferation assay, EML4-ALK wt (variant 1); format: cell-based; conditions: 72 hours, CellTiter-Glo
T6 construct: echinoderm microtubule-associated protein-like 4 (EML4) gene and the ALK tyrosine kinase domain; host or cells: Ba/F3 (RIKEN), retroviral pMSCV-puro; the other entry of the earlier key: EML4 (Q9HC35, Echinoderm microtubule-associated protein-like 4)
Summary of the method: as §1

[8] = molecular target: T7, ALK-wt (Homo sapiens, UniProt Q9UM73); assay: Biochemical kinase assay, ALK-wt kinase domain; conditions: apparent inhibitory constant, Morrison equation; ATP 2 mM in substrate solution; read-out: ALK-wt Ki^app
T7 construct: purchased Carna 08-518
Summary of the method: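 Apparent Ki values come from fitting initial reaction rates against inhibitor concentration to the Morrison equation. Rates were taken from the linear phase of fluorogenic substrate phosphorylation (AQT0101 for ALK and ROS1, AQT0104 for TRKA; 26 μM in substrate solution with 2 mM ATP), monitored at 485 nm over 120 min at 30° C.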

[9] = molecular target: T8, Ba/F3 cells CD74-ROS1 G2032R (Homo sapiens, UniProt P08922, G2032R); assay: Ba/F3 cell proliferation assay, CD74-ROS1 G2032R; format: cell-based; conditions: 72 hours, CellTiter-Glo
T8 construct: fusion of the C-terminus of ROS1 with the N-terminus of various partner proteins; host or cells: Ba/F3 (RIKEN), retroviral pMSCV-puro; the other entry of the earlier key: CD74 (P04233, HLA class II histocompatibility antigen gamma chain)
Summary of the method: as §4

[10] = molecular target: T9, Ba/F3 cells TPM3-TRKA (Homo sapiens, UniProt P04629); assay: Ba/F3 cell proliferation assay, TPM3-TRKA; format: cell-based; conditions: 72 hours, CellTiter-Glo, read-out: TPM3-NTRK1-wt IC50
T9 construct: host or cells: Ba/F3 (RIKEN), retroviral pMSCV-puro; the other entry of the earlier key: TPM3 (P06753, Tropomyosin alpha-3 chain)
Summary of the method: as §1

[11] = molecular target: T10, ROS1-G2032R (Homo sapiens, UniProt P08922, G2032R); assay: Biochemical kinase assay, ROS1-G2032R kinase domain; conditions: apparent inhibitory constant, Morrison equation; ATP 2 mM in substrate solution; read-out: ROS1-G2032R Ki^app
T10 construct: purchased SignalChem R14-12BG
Summary of the method: as §3

T10 sequence (P08922 1945-2222 G2032R limits assumed): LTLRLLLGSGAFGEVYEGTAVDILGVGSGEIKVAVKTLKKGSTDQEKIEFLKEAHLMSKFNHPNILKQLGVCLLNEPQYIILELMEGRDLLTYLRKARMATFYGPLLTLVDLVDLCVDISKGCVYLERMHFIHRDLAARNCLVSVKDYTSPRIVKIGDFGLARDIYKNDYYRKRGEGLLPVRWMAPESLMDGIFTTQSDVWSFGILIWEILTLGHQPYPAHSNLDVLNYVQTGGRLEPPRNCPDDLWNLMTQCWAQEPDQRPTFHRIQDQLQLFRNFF
T3 sequence (P08922 1945-2222 limits assumed): as the sequence (P08922 1945-2222 G2032R limits assumed) above, with R88G counted along it
T1 sequence (Q9UM73 with tags, fused parts or gaps L1196M/G1202R): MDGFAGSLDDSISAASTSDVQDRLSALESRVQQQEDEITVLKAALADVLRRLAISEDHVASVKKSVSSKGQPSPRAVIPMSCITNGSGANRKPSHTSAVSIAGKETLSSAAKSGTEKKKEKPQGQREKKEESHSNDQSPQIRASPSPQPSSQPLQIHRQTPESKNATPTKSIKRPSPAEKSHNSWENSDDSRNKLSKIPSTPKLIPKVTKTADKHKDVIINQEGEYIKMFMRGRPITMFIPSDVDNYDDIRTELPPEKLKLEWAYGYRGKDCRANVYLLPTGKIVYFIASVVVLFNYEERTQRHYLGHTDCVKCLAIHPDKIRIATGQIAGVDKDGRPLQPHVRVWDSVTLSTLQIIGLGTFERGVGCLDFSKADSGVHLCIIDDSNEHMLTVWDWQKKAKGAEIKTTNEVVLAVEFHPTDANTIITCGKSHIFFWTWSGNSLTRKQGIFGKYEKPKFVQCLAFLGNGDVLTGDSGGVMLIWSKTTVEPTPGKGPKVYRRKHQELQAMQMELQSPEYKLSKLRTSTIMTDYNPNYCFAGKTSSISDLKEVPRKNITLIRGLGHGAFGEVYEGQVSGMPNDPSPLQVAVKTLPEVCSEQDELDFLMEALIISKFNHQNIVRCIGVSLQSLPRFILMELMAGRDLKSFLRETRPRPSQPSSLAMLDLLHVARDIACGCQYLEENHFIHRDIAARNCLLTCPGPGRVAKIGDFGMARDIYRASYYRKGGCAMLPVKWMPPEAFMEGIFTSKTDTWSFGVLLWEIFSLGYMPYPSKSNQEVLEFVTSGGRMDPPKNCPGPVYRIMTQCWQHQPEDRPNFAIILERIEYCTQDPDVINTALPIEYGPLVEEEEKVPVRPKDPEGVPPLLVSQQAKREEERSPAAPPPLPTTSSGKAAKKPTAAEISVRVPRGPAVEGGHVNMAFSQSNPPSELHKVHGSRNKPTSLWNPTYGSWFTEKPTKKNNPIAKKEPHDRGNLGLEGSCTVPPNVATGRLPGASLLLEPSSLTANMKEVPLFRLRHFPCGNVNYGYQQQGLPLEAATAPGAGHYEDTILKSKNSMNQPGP
T6 sequence (Q9UM73 with tags, fused parts or gaps): as the sequence (Q9UM73 with tags, fused parts or gaps L1196M/G1202R) above, with M635L, R641G counted along it
T5 sequence (P04629 510-781 limits assumed): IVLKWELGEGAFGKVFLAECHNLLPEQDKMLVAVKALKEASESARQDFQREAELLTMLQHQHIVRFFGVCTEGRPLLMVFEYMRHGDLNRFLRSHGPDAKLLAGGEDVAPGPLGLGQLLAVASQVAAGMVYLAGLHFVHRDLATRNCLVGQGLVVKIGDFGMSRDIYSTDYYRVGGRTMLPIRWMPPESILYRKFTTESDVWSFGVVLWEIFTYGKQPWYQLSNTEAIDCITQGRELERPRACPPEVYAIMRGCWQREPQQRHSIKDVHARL
T9 sequence (P04629 510-796 limits assumed): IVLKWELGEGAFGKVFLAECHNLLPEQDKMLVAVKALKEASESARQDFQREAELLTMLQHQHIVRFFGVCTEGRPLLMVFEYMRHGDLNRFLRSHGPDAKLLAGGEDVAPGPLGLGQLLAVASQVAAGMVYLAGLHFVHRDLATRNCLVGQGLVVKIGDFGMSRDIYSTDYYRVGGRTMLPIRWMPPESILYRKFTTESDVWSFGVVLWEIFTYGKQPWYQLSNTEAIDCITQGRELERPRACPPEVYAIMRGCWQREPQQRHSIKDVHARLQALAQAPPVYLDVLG
T7 sequence (Q9UM73 1116-1392 limits assumed): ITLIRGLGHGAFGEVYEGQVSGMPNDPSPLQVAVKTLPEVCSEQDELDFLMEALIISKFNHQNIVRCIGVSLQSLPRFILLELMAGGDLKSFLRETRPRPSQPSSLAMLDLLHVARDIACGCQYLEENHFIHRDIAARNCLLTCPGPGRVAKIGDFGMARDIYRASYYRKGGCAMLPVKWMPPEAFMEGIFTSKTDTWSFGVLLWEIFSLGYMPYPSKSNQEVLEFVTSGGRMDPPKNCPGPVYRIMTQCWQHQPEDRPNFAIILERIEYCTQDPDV
T2 sequence (Q9UM73 1116-1392 L1196M/G1202R limits assumed): as the sequence (Q9UM73 1116-1392 limits assumed) above, with L81M, G87R counted along it
T8 sequence (P08922 1883-2347 G2032R limits assumed): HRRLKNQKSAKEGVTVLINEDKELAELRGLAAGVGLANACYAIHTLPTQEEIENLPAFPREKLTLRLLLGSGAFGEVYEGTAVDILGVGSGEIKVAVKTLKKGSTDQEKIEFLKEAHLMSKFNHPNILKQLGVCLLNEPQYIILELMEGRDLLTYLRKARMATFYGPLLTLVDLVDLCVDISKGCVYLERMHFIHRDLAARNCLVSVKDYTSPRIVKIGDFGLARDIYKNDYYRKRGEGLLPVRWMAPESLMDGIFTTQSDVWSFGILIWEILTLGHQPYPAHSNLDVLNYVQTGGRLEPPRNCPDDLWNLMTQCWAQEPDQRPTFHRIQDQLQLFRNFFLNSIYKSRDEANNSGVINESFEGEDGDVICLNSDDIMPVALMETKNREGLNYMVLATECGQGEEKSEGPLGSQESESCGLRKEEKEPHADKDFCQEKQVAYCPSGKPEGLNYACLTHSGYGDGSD
T4 sequence (P08922 1883-2347 limits assumed): as the sequence (P08922 1883-2347 G2032R limits assumed) above, with R150G counted along it

Row | Structure (SMILES) | IC50 [1] | Ki [2] | Ki [3] | IC50 [4] | TPM3-NTRK1-wt/CD74-ROS1-G2032R selectivity ratio [5] | TPM3-NTRK1-wt/CD74-ROS1-wt selectivity ratio [5] | TPM3-NTRK1-wt/EML4-ALK-L1196M-G1202R selectivity ratio [5] | TPM3-NTRK1-wt/EML4-ALK-wt selectivity ratio [5] | Ki [6] | IC50 [7] | Ki [8] | IC50 [9] | IC50 [10] | Ki [11]
1 | CCn1ncc2c1-c1cnc(N)c(c1)O[C@H](C)c1cc(F)ccc1-c1cn(C)nc1C2 [Example 9, (19R)-3-ethyl-16-fluoro-10,19-dimethyl-20-oxa-3,4,9,10,23-pentaazapentacyclo[19.3,1.0^2,^6.0^8,^12.0^13,^18]pentacosa-1(24),2(6),4,8,11,13,15,17,21 (25),22-decaen-22-amine] | 0.1 to 50 nM | < 50 nM | < 50 nM | 0.1 to 50 nM | A (bin A for very high selectivity, ratio >30-fold) | A (bin A for very high selectivity, ratio >30-fold) | B (bin B for high selectivity, ratio >10-fold) | A (bin A for very high selectivity, ratio >30-fold) | 50 to 500 nM | 0.1 to 50 nM | < 50 nM | 0.1 to 50 nM | > 500 nM | < 50 nM
2 | CCn1nc(C)c2c1-c1cnc(N)c(c1)O[C@H](C)c1cc(F)ccc1-c1ncnn1C2 [Example 56, (19R)-3-ethyl-16-fluoro-5,19-dimethyl-20-oxa-3,4,8,9,11,23-hexaazapentacyclo[19.3.1.0^2,^6.0^8,^12.0^13,^18]pentacosa-1(24),2(6),4,9,11,13,15,17,21(25),22-decaen-22-amine] | 50 to 500 nM | < 50 nM | < 50 nM | 0.1 to 50 nM | A (bin A for very high selectivity, ratio >30-fold) | A (bin A for very high selectivity, ratio >30-fold) | C (bin C for moderate selectivity, ratio ≥1) | B (bin B for high selectivity, ratio >10-fold) | 50 to 500 nM | 0.1 to 50 nM | < 50 nM | 0.1 to 50 nM | 50 to 500 nM | < 50 nM
3 | C[C@H]1Oc2cc(cnc2N)-c2c(CC3CC3)nn(C)c2Cc2nn(C)nc2-c2ccc(F)cc21 [Example 100, (19R)-3-(cyclopropylmethyl)-16-fluoro-5,10.19-trimethyl-20-oxa-4,5,9,10,11 23-hexaazapentacyclo[19.3.1.0^2,^6.0^8,^12.0^13,^18]pentacosa-1(24),2(6) 3,8,11,13,15,17,21(25),22-decaen-22-amine] | 0.1 to 50 nM | < 50 nM | < 50 nM | 0.1 to 50 nM | A (bin A for very high selectivity, ratio >30-fold) | A (bin A for very high selectivity, ratio >30-fold) | A (bin A for very high selectivity, ratio >30-fold) | A (bin A for very high selectivity, ratio >30-fold) | > 500 nM | 0.1 to 50 nM | < 50 nM | 0.1 to 50 nM | > 500 nM | < 50 nM
4 | Cc1nn(CC2CC2)c2c1Cc1nn(C)nc1-c1ccc(F)cc1COc1cc-2cnc1N [Example 71, 3-(cyclopropylmethyl)-16-fluoro-5,10-dimethyl-20-oxa-3,4,9,10,11,23-hexaazapentacyclo[19.3.1.0^2,^6.0^8,^12.0^13,^18]pentacosa-1(24),2(6),4,8,11,13,15,17,21(25),22-decaen-22-amine] | 50 to 500 nM | < 50 nM | < 50 nM | 0.1 to 50 nM | A (bin A for very high selectivity, ratio >30-fold) | A (bin A for very high selectivity, ratio >30-fold) | B (bin B for high selectivity, ratio >10-fold) | A (bin A for very high selectivity, ratio >30-fold) | > 500 nM | 50 to 500 nM | < 50 nM | 0.1 to 50 nM | > 500 nM | 50 to 500 nM
5 | C[C@H]1Oc2cc(cnc2N)-c2c(C#N)noc2Cn2nccc2-c2ccc(F)cc21 [Example 20, (19R)-22-amino-16-fluoro-19-methyl-5,20-dioxa-4,8,9,23-tetraazapentacyclo[19.3.1.0^2,^6.0^8,^12.0^13,^18]pentacosa-1(24),2(6),3,9,11,13(18), 4,16,21 (25),22-decaene-3-carbonitrile] | > 500 nM | 50 to 500 nM | < 50 nM | 0.1 to 50 nM | A (bin A for very high selectivity, ratio >30-fold) | A (bin A for very high selectivity, ratio >30-fold) | C (bin C for moderate selectivity, ratio ≥1) | A (bin A for very high selectivity, ratio >30-fold) | > 500 nM | 50 to 500 nM | < 50 nM | 50 to 500 nM | > 500 nM | 50 to 500 nM
6 | C[C@H]1Oc2cc(cnc2N)-c2c(C3CCC3)noc2Cn2ncnc2-c2ccc(F)cc21 [Example 52, (19R)-3-cyclobutyl-16-fluoro-19-methyl-5,20-dioxa-4,8,9,11,23-pentaazapentacyclo[19.3.1.0^2,^6.0^8,^12.0^13,^18]pentacosa-1(24),2(6),3,9,11,13,15,17,21(25),22-decaen-22-amine] | 50 to 500 nM | < 50 nM | < 50 nM | 0.1 to 50 nM | A (bin A for very high selectivity, ratio >30-fold) | A (bin A for very high selectivity, ratio >30-fold) | C (bin C for moderate selectivity, ratio ≥1) | A (bin A for very high selectivity, ratio >30-fold) | > 500 nM | 0.1 to 50 nM | < 50 nM | 0.1 to 50 nM | > 500 nM | < 50 nM
